ChEMBL document CHEMBL3751839, “Novel phenylalanine derived diamides as Factor XIa inhibitors” (Bioorg Med Chem Lett, 2016)

What was measured:
in vivo [1] = conditions: beagle, dog, iv, 0.4 mg/kg
Description: Half life in beagle dog at 0.4 mg/kg, iv cassette dosing by LC-MS/MS method

in vivo [2] = conditions: beagle, dog, iv, 0.4 mg/kg; remark: listed apart in the source
Description: Total AUC in beagle dog at 0.4 mg/kg, iv administered as cassette dosing by LC-MS/MS method

in vivo [3] = conditions: beagle, dog, iv, 0.4 mg/kg; remark: listed apart in the source
Description: Clearance in beagle dog at 0.4 mg/kg, iv administered as cassette dosing by LC-MS/MS method

in vitro = conditions: human, liver microsomes
Description: Stability in human liver microsomes assessed as half life

in vivo [4] = conditions: beagle, dog, iv, 0.4 mg/kg; remark: listed apart in the source
Description: Volume of distribution at steady state in beagle dog at 0.4 mg/kg, iv cassette dosing by LC-MS/MS method

| half-life (in vivo [1]) [h] | AUC (in vivo [2]) [µM·h] | clearance (in vivo [3]) [mL/min/kg] | Vd (in vivo [4]) [L/kg] | SMILES | half-life (in vitro) [h] |
| --- | --- | --- | --- | --- | --- |
| 0.6 | 0.396 | 16 | 0.5 | O=C(/C=C/c1cc(Cl)ccc1-n1cnnn1)N[C@@H](Cc1ccccc1)C(=O)Nc1ccc(C(=O)O)cc1 | > 2 |
|  |  |  |  | COC(=O)Nc1cccc(NC(=O)[C@H](Cc2ccccc2)NC(=O)/C=C/c2cc(Cl)ccc2-n2cnnn2)c1 | > 1.67 |
|  |  |  |  | O=C(/C=C/c1cc(Cl)ccc1-n1cnnn1)N[C@@H](Cc1ccccc1)C(=O)Nc1ccc(-n2cnnn2)cc1 | > 1.67 |
|  |  |  |  | O=C(/C=C/c1cc(Cl)ccc1-n1cnnn1)N[C@@H](Cc1ccccc1)C(=O)Nc1ccc(-c2nc[nH]n2)cc1 | > 1.67 |
